{"source": "patent US20210382058A1", "about": "“PATIENT SELECTION FOR TREATMENT OF MYC POSITIVE CANCERS WITH INDENOISOQUINOLINES” (Purdue Research Foundation, priority 2020, published 2021)", "key": {"NCI-60 cancer cell lines": {"system": "NCI-60 cancer cell lines", "assay": "NCI-60 cancer cell line drug screen (GI50, MGM)", "format": "cell-based, human", "conditions": "for GI50: read-out: Antiproliferative Activities [GI50 (μM)]", "procedure": "Cancer cells were incubated with the test compounds at five concentrations ranging from 100 μM to 10 nM for 48 h. […] The approximate average of GI50 values across the entire panel of NCI-60 cancer cell lines for each compound was recorded as the MGM value."}, "[1]": {"system": "MYC protein expression in MCF-7 breast cancer cells", "assay": "Western blotting of MYC protein level in MCF-7 cells", "format": "cell-based, human", "conditions": "MCF-7, 0.5, 1, 2, and 4 μM, 24 h", "how_it_was_run": "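Immunoblotting with ECL detection quantified MYC, with GAPDH (1:2000) as reference and anti-MYC at 1:1000.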"}}, "note": "Where two headings read alike, the source gives them in different places.", "data": [{"smiles": "COc1cnc2c(c1)C(=O)c1c-2n(CCCNC2=NCCS2)c(=O)c2cc([N+](=O)[O-])ccc12", "note": "[Compound 12]", "values": [{"measurement": "GI50", "setting": "NCI-60 cancer cell lines; Homo sapiens, 786-0, Renal Cancer, 786-0", "result": 0.02, "unit": "µM"}, {"measurement": "GI50", "setting": "NCI-60 cancer cell lines; Homo sapiens, A549, Non-Small Cell Lung Cancer, A549/ATCC", "result": 0.04, "unit": "µM"}, {"measurement": "GI50", "setting": "NCI-60 cancer cell lines; Homo sapiens, ACHN, Renal Cancer, ACHN", "result": "< 0.01", "unit": "µM"}, {"measurement": "GI50", "setting": "NCI-60 cancer cell lines; Homo sapiens, BT-549, Breast Cancer, BT-549", "result": 0.05, "unit": "µM"}, {"measurement": "GI50", "setting": "NCI-60 cancer cell lines; Homo sapiens, CAKI-1, Renal Cancer, CAKI-1", "result": "< 0.01", "unit": "µM"}, {"measurement": "GI50", "setting": "NCI-60 cancer cell lines; Homo sapiens, CCRF-CEM, Leukemia, CCRF-CEM", "result": "< 0.01", "unit": "µM"}, {"measurement": "GI50", "setting": "NCI-60 cancer cell lines; Homo sapiens, COLO 205, Colon Cancer, COLO 205", "result": 0.24, "unit": "µM"}, {"measurement": "GI50", "setting": "NCI-60 cancer cell lines; Homo sapiens, DU-145, Prostate Cancer, DU-145", "result": "< 0.01", "unit": "µM"}, {"measurement": "GI50", "setting": "NCI-60 cancer cell lines; Homo sapiens, EKVX, Non-Small Cell Lung Cancer, EKVX", "result": 1.01, "unit": "µM"}, {"measurement": "GI50", "setting": "NCI-60 cancer cell lines; Homo sapiens, HCC 2998, Colon Cancer, HCC-2998", "result": 1.03, "unit": "µM"}, {"measurement": "GI50", "setting": "NCI-60 cancer cell lines; Homo sapiens, HCT-15, Colon Cancer, HCT-15", "result": 1.17, "unit": "µM"}, {"measurement": "GI50", "setting": "NCI-60 cancer cell lines; Homo sapiens, HL-60, Leukemia, HL-60(TB)", "result": "< 0.01", "unit": "µM"}, {"measurement": "GI50", "setting": "NCI-60 cancer cell lines; Homo sapiens, HOP-62, Non-Small Cell Lung Cancer, HOP-62", "result": 0.01, "unit": "µM"}, {"measurement": "GI50", "setting": "NCI-60 cancer cell lines; Homo sapiens, HOP-92, Non-Small Cell Lung Cancer, HOP-92", "result": 1.38, "unit": "µM"}, {"measurement": "GI50", "setting": "NCI-60 cancer cell lines; Homo sapiens, HT-29, Colon Cancer, HT29", "result": 0.03, "unit": "µM"}, {"measurement": "GI50", "setting": "NCI-60 cancer cell lines; Homo sapiens, Hs-578T, Breast Cancer, HS 578T", "result": 1.82, "unit": "µM"}, {"measurement": "GI50", "setting": "NCI-60 cancer cell lines; Homo sapiens, IGROV-1, Ovarian Cancer, IGROV1", "result": 0.08, "unit": "µM"}, {"measurement": "GI50", "setting": "NCI-60 cancer cell lines; Homo sapiens, K562, Leukemia, K-562", "result": 0.11, "unit": "µM"}, {"measurement": "GI50", "setting": "NCI-60 cancer cell lines; Homo sapiens, KM12, Colon Cancer, KM12", "result": 1.11, "unit": "µM"}, {"measurement": "GI50", "setting": "NCI-60 cancer cell lines; Homo sapiens, LOX IMVI, Melanoma, LOX IMVI", "result": "< 0.01", "unit": "µM"}, {"measurement": "GI50", "setting": "NCI-60 cancer cell lines; Homo sapiens, Leukemia, SR", "result": "< 0.01", "unit": "µM"}, {"measurement": "GI50", "setting": "NCI-60 cancer cell lines; Homo sapiens, MCF7, Breast Cancer, MCF7", "result": "< 0.01", "unit": "µM"}, {"measurement": "GI50", "setting": "NCI-60 cancer cell lines; Homo sapiens, MDA-MB-231, Breast Cancer, MDA-MB-231/ATCC", "result": 1.61, "unit": "µM"}, {"measurement": "GI50", "setting": "NCI-60 cancer cell lines; Homo sapiens, MDA-MB-435, Melanoma, MDA-MB-435", "result": 0.48, "unit": "µM"}, {"measurement": "GI50", "setting": "NCI-60 cancer cell lines; Homo sapiens, MDA-MB-468, Breast Cancer, MDA-MB-468", "result": 0.03, "unit": "µM"}, {"measurement": "GI50", "setting": "NCI-60 cancer cell lines; Homo sapiens, MOLT-4, Leukemia, MOLT-4", "result": "< 0.01", "unit": "µM"}, {"measurement": "GI50", "setting": "NCI-60 cancer cell lines; Homo sapiens, Malme-3M, Melanoma, MALME-3M", "result": 0.62, "unit": "µM"}, {"measurement": "GI50", "setting": "NCI-60 cancer cell lines; Homo sapiens, Melanoma, M14", "result": "< 0.01", "unit": "µM"}, {"measurement": "GI50", "setting": "NCI-60 cancer cell lines; Homo sapiens, NCI-H23, Non-Small Cell Lung Cancer, NCI-H23", "result": 0.02, "unit": "µM"}, {"measurement": "GI50", "setting": "NCI-60 cancer cell lines; Homo sapiens, NCI-H226, Non-Small Cell Lung Cancer, NCI-H226", "result": 0.04, "unit": "µM"}, {"measurement": "GI50", "setting": "NCI-60 cancer cell lines; Homo sapiens, NCI-H322M, Non-Small Cell Lung Cancer, NCI-H322M", "result": 0.04, "unit": "µM"}, {"measurement": "GI50", "setting": "NCI-60 cancer cell lines; Homo sapiens, NCI-H460, Non-Small Cell Lung Cancer, NCI-H460", "result": "< 0.01", "unit": "µM"}, {"measurement": "GI50", "setting": "NCI-60 cancer cell lines; Homo sapiens, NCI-H522, Non-Small Cell Lung Cancer, NCI-H522", "result": "< 0.01", "unit": "µM"}, {"measurement": "GI50", "setting": "NCI-60 cancer cell lines; Homo sapiens, OVCAR-3, Ovarian Cancer, OVCAR-3", "result": 0.14, "unit": "µM"}, {"measurement": "GI50", "setting": "NCI-60 cancer cell lines; Homo sapiens, OVCAR-4, Ovarian Cancer, OVCAR-4", "result": 0.48, "unit": "µM"}, {"measurement": "GI50", "setting": "NCI-60 cancer cell lines; Homo sapiens, OVCAR-5, Ovarian Cancer, OVCAR-5", "result": 1.04, "unit": "µM"}, {"measurement": "GI50", "setting": "NCI-60 cancer cell lines; Homo sapiens, OVCAR-8, Ovarian Cancer, OVCAR-8", "result": 0.02, "unit": "µM"}, {"measurement": "GI50", "setting": "NCI-60 cancer cell lines; Homo sapiens, Ovarian Cancer, NCl/ADR-RES", "result": 0.02, "unit": "µM"}, {"measurement": "GI50", "setting": "NCI-60 cancer cell lines; Homo sapiens, Prostate Cancer, PC-3", "result": 1.28, "unit": "µM"}, {"measurement": "GI50", "setting": "NCI-60 cancer cell lines; Homo sapiens, RPMI-8226, Leukemia, RPMI-8226", "result": 0.03, "unit": "µM"}, {"measurement": "GI50", "setting": "NCI-60 cancer cell lines; Homo sapiens, RXF 393, Renal Cancer, RXF 393", "result": 0.03, "unit": "µM"}, {"measurement": "GI50", "setting": "NCI-60 cancer cell lines; Homo sapiens, Renal Cancer, U0-31", "result": "< 0.01", "unit": "µM"}, {"measurement": "GI50", "setting": "NCI-60 cancer cell lines; Homo sapiens, SF-268, CNS Cancer, SF-268", "result": "< 0.01", "unit": "µM"}, {"measurement": "GI50", "setting": "NCI-60 cancer cell lines; Homo sapiens, SF-295, CNS Cancer, SF-295", "result": 0.01, "unit": "µM"}, {"measurement": "GI50", "setting": "NCI-60 cancer cell lines; Homo sapiens, SF-539, CNS Cancer, SF-539", "result": 0.04, "unit": "µM"}, {"measurement": "GI50", "setting": "NCI-60 cancer cell lines; Homo sapiens, SK-MEL-2, Melanoma, SK-MEL-2", "result": 1.56, "unit": "µM"}, {"measurement": "GI50", "setting": "NCI-60 cancer cell lines; Homo sapiens, SK-MEL-5, Melanoma, SK-MEL-5", "result": 0.03, "unit": "µM"}, {"measurement": "GI50", "setting": "NCI-60 cancer cell lines; Homo sapiens, SK-MEL-28, Melanoma, SK-MEL-28", "result": 1.18, "unit": "µM"}, {"measurement": "GI50", "setting": "NCI-60 cancer cell lines; Homo sapiens, SK-OV-3, Ovarian Cancer, SK-OV-3", "result": 0.01, "unit": "µM"}, {"measurement": "GI50", "setting": "NCI-60 cancer cell lines; Homo sapiens, SN12C, Renal Cancer, SN12C", "result": "< 0.01", "unit": "µM"}, {"measurement": "GI50", "setting": "NCI-60 cancer cell lines; Homo sapiens, SNB-19, CNS Cancer, SNB-19", "result": 0.01, "unit": "µM"}, {"measurement": "GI50", "setting": "NCI-60 cancer cell lines; Homo sapiens, SNB-75, CNS Cancer, SNB-75", "result": 0.03, "unit": "µM"}, {"measurement": "GI50", "setting": "NCI-60 cancer cell lines; Homo sapiens, SW-620, Colon Cancer, SW-620", "result": 0.01, "unit": "µM"}, {"measurement": "GI50", "setting": "NCI-60 cancer cell lines; Homo sapiens, T47D, Breast Cancer, T-47D", "result": "< 0.01", "unit": "µM"}, {"measurement": "GI50", "setting": "NCI-60 cancer cell lines; Homo sapiens, TK-10, Renal Cancer, TK-10", "result": 1.34, "unit": "µM"}, {"measurement": "GI50", "setting": "NCI-60 cancer cell lines; Homo sapiens, U-251, CNS Cancer, U251", "result": "< 0.01", "unit": "µM"}, {"measurement": "GI50", "setting": "NCI-60 cancer cell lines; Homo sapiens, UACC-62, Melanoma, UACC-62", "result": "< 0.01", "unit": "µM"}, {"measurement": "GI50", "setting": "NCI-60 cancer cell lines; Homo sapiens, UACC-257, Melanoma, UACC-257", "result": 0.58, "unit": "µM"}, {"measurement": "mean GI50 across NCI-60 panel (MGM)", "setting": "NCI-60 cancer cell lines; Homo sapiens, average of GI50 values across the entire panel of NCI-60 cancer cell lines", "result": 55, "unit": "nM"}, {"measurement": "anticancer activity (GI50 profile) in words", "setting": "NCI-60 cancer cell lines; NCI-60 panel", "result": "more potent anticancer activities compared to compounds 4 and 20"}, {"measurement": "MYC-inhibitory effect (MYC protein, western blot)", "setting": "[1]", "result": "clear MYC-inhibitory effect"}]}]}
